What was measured:
hTRMT10A [1] = target: hTRMT10A (Homo sapiens, UniProt Q8TBZ6); assay: biochemical
hTRMT10A [2] = target: hTRMT10A (Homo sapiens, UniProt Q8TBZ6, D210N); assay: biochemical
hTRMT10A (Homo sapiens, UniProt Q8TBZ6, D210N), sequence (Q8TBZ6 whole entry D210N): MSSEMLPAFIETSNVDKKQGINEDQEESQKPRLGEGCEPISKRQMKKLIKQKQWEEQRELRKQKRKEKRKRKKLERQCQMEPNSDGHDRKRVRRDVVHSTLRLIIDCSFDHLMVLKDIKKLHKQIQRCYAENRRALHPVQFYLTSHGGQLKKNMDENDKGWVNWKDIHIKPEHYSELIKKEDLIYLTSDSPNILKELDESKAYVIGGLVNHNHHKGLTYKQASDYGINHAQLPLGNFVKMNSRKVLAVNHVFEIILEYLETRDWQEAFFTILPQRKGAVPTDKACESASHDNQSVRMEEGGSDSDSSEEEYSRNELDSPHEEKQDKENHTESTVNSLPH

hTRMT10A (Homo sapiens, UniProt Q8TBZ6), sequence (Q8TBZ6 whole entry): as the sequence (Q8TBZ6 whole entry D210N) above, with N210D counted along it

Kd (hTRMT10A [1]): 17.7 ± 4 µM | Kd (hTRMT10A [2]): 60.6 ± 10.3 µM
SMILES: C[S+](CC[C@H](N)C(=O)O)C[C@H]1O[C@@H](n2cnc3c(N)ncnc32)[C@H](O)[C@@H]1O (some centres unmarked) [S-adenosyl methionine]
